Experimental data: patent US8541418B2, “Inhibitors of polo-like kinase” (Elan Pharmaceutical, Inc., priority 2009, dated 2013)
Read-outs that look alike come from different tables or passages of the source.

Assays:
Format in all cases: biochemical
[1] = biological target: PLK3 (Homo sapiens, UniProt Q9H4B4); experiment: PLK TR-FRET peptide assay, PLK3
[2] = biological target: PLK1 (Homo sapiens, UniProt P53350); experiment: PLK TR-FRET peptide assay, PLK1
[3] = biological target: PLK2 (Homo sapiens, UniProt Q9NYY3); experiment: PLK TR-FRET peptide assay, PLK2; details: for IC50: PLK TR-FRET peptide assay, read-out: Plk2 IC50
[4] = GST-PLK3, 15 min reaction, read-out: Plk3 IC50

Sequence of PLK1 (P53350 whole entry): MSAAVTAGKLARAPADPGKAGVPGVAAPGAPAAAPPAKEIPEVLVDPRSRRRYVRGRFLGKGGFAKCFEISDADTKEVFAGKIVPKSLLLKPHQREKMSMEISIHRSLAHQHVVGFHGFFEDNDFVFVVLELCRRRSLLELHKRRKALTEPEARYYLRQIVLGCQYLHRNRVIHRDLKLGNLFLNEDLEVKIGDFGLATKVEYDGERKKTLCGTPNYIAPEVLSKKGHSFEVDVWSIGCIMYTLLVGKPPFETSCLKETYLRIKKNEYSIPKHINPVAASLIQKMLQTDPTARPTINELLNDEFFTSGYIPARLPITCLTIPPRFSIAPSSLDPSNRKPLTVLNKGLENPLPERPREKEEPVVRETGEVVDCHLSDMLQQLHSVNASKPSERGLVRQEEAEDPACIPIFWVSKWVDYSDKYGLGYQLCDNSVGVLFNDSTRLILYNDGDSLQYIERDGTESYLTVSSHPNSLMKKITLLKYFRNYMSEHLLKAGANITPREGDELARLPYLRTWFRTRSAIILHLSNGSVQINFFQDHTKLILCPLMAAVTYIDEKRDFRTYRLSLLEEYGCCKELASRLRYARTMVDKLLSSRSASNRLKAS
Sequence of PLK2 (Q9NYY3 whole entry): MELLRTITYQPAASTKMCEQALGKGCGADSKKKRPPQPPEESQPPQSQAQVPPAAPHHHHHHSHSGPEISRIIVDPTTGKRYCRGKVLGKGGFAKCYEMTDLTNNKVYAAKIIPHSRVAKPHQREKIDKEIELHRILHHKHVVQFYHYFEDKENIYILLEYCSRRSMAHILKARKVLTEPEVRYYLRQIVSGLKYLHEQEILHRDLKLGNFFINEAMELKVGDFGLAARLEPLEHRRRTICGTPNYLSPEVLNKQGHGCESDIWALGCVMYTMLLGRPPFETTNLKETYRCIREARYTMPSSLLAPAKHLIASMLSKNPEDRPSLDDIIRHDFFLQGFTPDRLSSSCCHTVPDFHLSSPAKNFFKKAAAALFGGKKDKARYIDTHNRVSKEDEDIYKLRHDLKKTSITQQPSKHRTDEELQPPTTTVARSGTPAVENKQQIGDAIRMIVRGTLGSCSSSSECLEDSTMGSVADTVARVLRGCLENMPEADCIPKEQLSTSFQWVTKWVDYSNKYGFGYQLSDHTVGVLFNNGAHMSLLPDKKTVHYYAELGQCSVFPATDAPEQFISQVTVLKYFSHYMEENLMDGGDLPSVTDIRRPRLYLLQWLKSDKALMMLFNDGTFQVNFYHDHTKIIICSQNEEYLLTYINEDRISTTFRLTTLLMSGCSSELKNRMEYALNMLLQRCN
Sequence of PLK3 (Q9H4B4 whole entry): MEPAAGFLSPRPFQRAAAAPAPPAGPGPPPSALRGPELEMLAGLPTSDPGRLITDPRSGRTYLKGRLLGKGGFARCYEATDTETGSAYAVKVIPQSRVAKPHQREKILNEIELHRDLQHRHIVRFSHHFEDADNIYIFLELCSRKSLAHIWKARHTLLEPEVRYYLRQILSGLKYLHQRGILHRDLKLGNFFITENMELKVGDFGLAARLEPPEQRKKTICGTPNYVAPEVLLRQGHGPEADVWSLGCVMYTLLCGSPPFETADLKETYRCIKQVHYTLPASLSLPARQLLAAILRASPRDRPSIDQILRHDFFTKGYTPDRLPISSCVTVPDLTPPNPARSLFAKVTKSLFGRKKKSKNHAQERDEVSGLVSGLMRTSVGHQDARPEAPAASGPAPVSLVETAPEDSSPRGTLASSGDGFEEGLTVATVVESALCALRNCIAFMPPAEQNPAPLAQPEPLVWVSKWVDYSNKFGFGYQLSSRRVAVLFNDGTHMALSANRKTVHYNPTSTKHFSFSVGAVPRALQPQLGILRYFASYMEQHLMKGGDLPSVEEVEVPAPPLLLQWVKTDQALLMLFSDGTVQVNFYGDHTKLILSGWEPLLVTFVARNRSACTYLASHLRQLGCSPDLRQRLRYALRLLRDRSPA

Row | IC50 ([1]; GST-PLK3, read-out: Plk3 IC50) [µM] | IC50 ([2]; GST-PLK1) [µM] | IC50 ([3]; GST-PLK2) [µM] | IC50 [1, 4] [µM] | IC50 ([2]; GST-PLK1, 60 min reaction) [µM] | IC50 ([3]; GST-PLK2, 60 min reaction) [µM] | relative PLK2 activity of the enantiomers ([3]; compared with the opposite enantiomer) | Structure (SMILES)
1 | – | – | – | < 1 | < 1 | < 1 | – | CC[C@@H]1C(=O)N(C)c2cnc(-c3ccncc3-c3ccccc3)nc2N1C1CCCC1 [Example 85, (R)-8-cyclopentyl-7-ethyl-5-methyl-2-(3-phenylpyridin-4-yl)-7,8-dihydropteridin-6(5H)-one]
2 | – | – | – | 10 to 50 | 1 to 10 | < 1 | – | CC[C@@H]1C(=O)N(C)c2cnc(-c3ccncc3NC(C)=O)nc2N1C1CCCC1 [Example 115, (R)—N-(4-(8-cyclopentyl-7-ethyl-5-methyl-6-oxo-5,6,7,8-tetrahydropteridin-2-yl)pyridin-3-yl)acetamide]
3 | – | – | – | 10 to 50 | 1 to 10 | < 1 | – | CC[C@@H]1C(=O)N(C)c2cnc(-c3ccncc3NC(=O)OC)nc2N1C1CCCC1 [Example 114, (R)-methyl 4-(8-cyclopentyl-7-ethyl-5-methyl-6-oxo-5,6,7,8-tetrahydropteridin-2-yl)pyridin-3-ylcarbamate]
4 | – | – | – | 10 to 50 | 10 to 50 | 10 to 50 | – | CC[C@@H]1C(=O)N(C)c2cnc(-c3cnoc3-c3nccs3)nc2N1C(C)C [Example 187, (R)-7-ethyl-8-isopropyl-5-methyl-2-(5-(thiazol-2-yl)isoxazol-4-yl)-7,8-dihydropteridin-6(5H)-one]

Further lines, the compound ahead of its results:

Row | Structure (SMILES) | IC50 ([1]; GST-PLK3, read-out: Plk3 IC50) [µM] | IC50 ([2]; GST-PLK1) [µM] | IC50 ([3]; GST-PLK2) [µM] | IC50 [1, 4] [µM] | IC50 ([2]; GST-PLK1, 60 min reaction) [µM] | IC50 ([3]; GST-PLK2, 60 min reaction) [µM] | relative PLK2 activity of the enantiomers ([3]; compared with the opposite enantiomer)
5 | CC[C@H]1C(=O)N(C)c2cnc(-c3cnsc3-c3ccc(F)cc3)nc2N1c1cccc(C#N)c1 [Example 392, (S)-3-(7-ethyl-2-(5-(4-fluorophenyl)isothiazol-4-yl)-5-methyl-6-oxo-6,7-dihydropteridin-8(5H)-yl)benzonitrile] | > 50 | > 50 | > 50 | – | – | – | –
6 | CC[C@@H]1C(=O)N(C)c2cnc(-n3ccnc3-c3ccc(F)c(Cl)c3)nc2N1C1CCOC1 (stereo partly drawn) [Example 232, (7R)-2-(2-(3-chloro-4-fluorophenyl)-1H-imidazol-1-yl)-7-ethyl-5-methyl-8-(tetrahydrofuran-3-yl)-7,8-dihydropteridin-6(5H)-one] | – | – | – | 1 to 10 | 1 to 10 | < 1 | –
7 | CC[C@@]12CCCCN1c1nc(-n3ccnc3)ncc1N(C)C2=O [Example 286, (S)-6a-ethyl-2-(1H-imidazol-1-yl)-5-methyl-7,8,9,10-tetrahydro-5H-pyrido[2,1-h]pteridin-6(6aH)-one] | – | – | – | > 50 | > 50 | 1 to 10 | more active compound
8 | CC[C@@H]1C(=O)N(C)c2cnc(-n3ccnc3C3CCOCC3)nc2N1C1CCCC1 [Example 90, (R)-8-cyclopentyl-7-ethyl-5-methyl-2-(2-(tetrahydro-2H-pyran-4-yl)-1H-imidazol-1-yl)-7,8-dihydropteridin-6(5H)-one] | – | – | – | 10 to 50 | 1 to 10 | 1 to 10 | –
9 | CC[C@@]12CCCN1c1nc(-n3ncnc3C#Cc3ccccc3)ncc1N(C)C2=O [Example 235, (S)-6a-ethyl-5-methyl-2-(5-(phenylethynyl)-1H-1,2,4-triazol-1-yl)-6a,7,8,9-tetrahydropyrrolo[2,1-h]pteridin-6(5H)-one] | – | – | – | 10 to 50 | > 50 | 10 to 50 | –
10 | CC[C@@H]1C(=O)N(C)c2cnc(-c3ccccc3C(F)(F)F)nc2N1C1CCC1 [Example 98, (R)-8-cyclobutyl-7-ethyl-5-methyl-2-(2-(trifluoromethyl)phenyl)-7,8-dihydropteridin-6(5H)-one] | – | – | – | > 50 | 10 to 50 | 1 to 10 | –
11 | CC(C)N1c2nc(-n3ccnc3-c3ccccc3)ncc2N(C)C(=O)C12CCC2 [Example 289, 8′-isopropyl-5′-methyl-2′-(2-phenyl-1H-imidazol-1-yl)-5′H-Spiro[cyclobutane-1,7′-pteridin]-6′(8′H)-one] | – | – | – | 10 to 50 | 1 to 10 | < 1 | –
12 | CC[C@@H]1C(=O)N(C)c2cnc(-c3ccncc3CNC(=O)OC(C)(C)C)nc2N1C1CCCC1 [Example 106, (R)-tert-butyl (4-(8-cyclopentyl-7-ethyl-5-methyl-6-oxo-5,6,7,8-tetrahydropteridin-2-yl)pyridin-3-yl)methylcarbamate] | – | – | – | > 50 | 10 to 50 | – | –
